Two substances from patent US20230130132A1, “PHARMACEUTICAL COMPOSITIONS COMPRISING AMPHIPHILIC PEPTIDES AND METHODS OF USE THEREOF” (BONE SCI. BIO LTD., priority 2020, published 2023) can be followed below.

No end group written: not given here.

One data set can be described thus: pH of the composition. The data set is classed as physicochemical. The settings on record: 5% w/v in deionized water, clear solution.
The nature of data set [1]: PFD5 sodium dissolved in HCl: peptide to acid mole ratio for stable hydrogel, pKa. The class given is physicochemical. Conditions: aqueous HCl solution (hydrogel); 1% (w/v) PFD5; pH at which half of the Asp residues are assumed protonated. As to the method: Different mole ratios of PFD5 sodium to HCl were generated by dissolving the peptide in an HCl solution using a magnetic stirrer. Following mixing for a few minutes, hydrogel formation was tested (Table 2 and FIG. 1A-1B). […] At a 1:6 ratio, the stable hydrogel appeared opaquer.
At a 1:4 ratio, the stable hydrogel appeared opaquer.
At this peptide concentration, the mole ratio of the peptide to acid was determined to be 1:1.67 to afford a stable clear hydrogel (FIG. 1B).

The substance Doxycycline hyclate returned a pH of solution in the data set “pH of the composition” of 1.93. Turning to “PDFDFDFDFDFDP [PFD5, Pro-(Asp-Phe)5-Asp-Pro]”, in data set [1], the pKa (as a rule, the negative logarithm of the acid dissociation constant) is about 5.95.
